Test results as given in ChEMBL document CHEMBL4393697, “Lipophilic efficient phenylthiazoles with potent undecaprenyl pyrophosphatase inhibitory activity” (Eur J Med Chem, 2019).
Values after ≈ are worked out from the molar mass of the structure shown.

What was measured:
[1] = test system: Staphylococcus aureus; assay: Antibacterial activity against methicillin resistant Staphylococcus aureus USA400 assessed as reduction in bacterial cell growth incubated for 18 to 20 hrs by broth microdilution method; format: functional
[2] = test system: Staphylococcus aureus; assay: Bactericidal activity against vancomycin resistant Staphylococcus aureus VRS11a assessed as reduction in bacterial cell growth incubated for 18 to 20 hrs followed by re-plating on tryptic soy agar plates at 37 degC for 18 hrs by broth microdilution assay; format: functional
[3] = test system: Pseudomonas aeruginosa; assay: Antibacterial activity against Pseudomonas aeruginosa ATCC 15442 assessed as reduction in bacterial cell growth incubated for 18 to 20 hrs by broth microdilution method; format: functional
[4] = test system: Streptococcus pneumoniae; assay: Antibacterial activity against Cephalosporin resistant Streptococcus pneumoniae ATCC 51916 assessed as reduction in bacterial cell growth incubated for 18 to 20 hrs by broth microdilution method; format: functional
[5] = test system: Enterococcus faecalis; assay: Bactericidal activity against vancomycin resistant Enterococcus faecalis ATCC 51299 assessed as reduction in bacterial cell growth incubated for 18 to 20 hrs followed by re-plating on tryptic soy agar plates at 37 degC for 18 hrs by broth microdilution assay; format: functional
[6] = test system: Streptococcus pneumoniae; assay: Bactericidal activity against Cephalosporin resistant Streptococcus pneumoniae ATCC 51916 assessed as reduction in bacterial cell growth incubated for 18 to 20 hrs followed by re-plating on tryptic soy agar plates at 37 degC for 18 hrs by broth microdilution assay; format: functional
[7] = test system: Staphylococcus aureus; assay: Antibacterial activity against vancomycin resistant Staphylococcus aureus VRS10 assessed as reduction in bacterial cell growth incubated for 18 to 20 hrs by broth microdilution method; format: functional
[8] = test system: Staphylococcus aureus; assay: Antibacterial activity against methicillin-resistant Staphylococcus aureus USA300 assessed as reduction in bacterial cell growth incubated for 18 to 20 hrs by broth microdilution method; format: functional
[9] = test system: Staphylococcus aureus; assay: Antibacterial activity against methicillin resistant Staphylococcus aureus NRS119 assessed as reduction in bacterial cell growth incubated for 18 to 20 hrs by broth microdilution method; format: functional
[10] = test system: Escherichia coli; assay: Antibacterial activity against Escherichia coli JW55031 harboring deltatolC mutant assessed as reduction in bacterial cell growth incubated for 18 to 20 hrs by broth microdilution method; format: functional
[11] = test system: Escherichia coli; assay: Antibacterial activity against Escherichia coli BW25113 assessed as reduction in bacterial cell growth incubated for 18 to 20 hrs by broth microdilution method; format: functional
[12] = test system: Enterococcus faecium; assay: Antibacterial activity against vancomycin resistant Enterococcus faecium ATCC 700221 assessed as reduction in bacterial cell growth incubated for 18 to 20 hrs by broth microdilution method; format: functional
[13] = test system: Pseudomonas aeruginosa; assay: Bactericidal activity against Pseudomonas aeruginosa ATCC 15442 assessed as reduction in bacterial cell growth incubated for 18 to 20 hrs followed by re-plating on tryptic soy agar plates at 37 degC for 18 hrs by broth microdilution assay; format: functional
[14] = test system: Staphylococcus aureus; assay: Bactericidal activity against vancomycin resistant Staphylococcus aureus VRS12 assessed as reduction in bacterial cell growth incubated for 18 to 20 hrs followed by re-plating on tryptic soy agar plates at 37 degC for 18 hrs by broth microdilution assay; format: functional
[15] = test system: Acinetobacter baumannii; assay: Antibacterial activity against Acinetobacter baumannii ATCC 19606 assessed as reduction in bacterial cell growth incubated for 18 to 20 hrs by broth microdilution method; format: functional
[16] = test system: Staphylococcus aureus; assay: Bactericidal activity against Staphylococcus aureus NRS107 assessed as reduction in bacterial cell growth incubated for 18 to 20 hrs followed by re-plating on tryptic soy agar plates at 37 degC for 18 hrs by broth microdilution assay; format: functional
[17] = test system: Staphylococcus aureus; assay: Antibacterial activity against Staphylococcus aureus ATCC 6538 assessed as reduction in bacterial cell growth incubated for 18 to 20 hrs by broth microdilution method; format: functional
[18] = test system: Enterococcus faecium; assay: Bactericidal activity against vancomycin resistant Enterococcus faecium ATCC 700221 assessed as reduction in bacterial cell growth incubated for 18 to 20 hrs followed by re-plating on tryptic soy agar plates at 37 degC for 18 hrs by broth microdilution assay; format: functional
[19] = test system: Staphylococcus epidermidis; assay: Antibacterial activity against methicillin resistant Staphylococcus epidermidis NRS101 assessed as reduction in bacterial cell growth incubated for 18 to 20 hrs by broth microdilution method; format: functional
[20] = test system: Listeria monocytogenes; assay: Bactericidal activity against Listeria monocytogenes ATCC 19111 assessed as reduction in bacterial cell growth incubated for 18 to 20 hrs followed by re-plating on tryptic soy agar plates at 37 degC for 18 hrs by broth microdilution assay; format: functional
[21] = test system: Klebsiella pneumoniae; assay: Antibacterial activity against Klebsiella pneumoniae BAA-1706 assessed as reduction in bacterial cell growth incubated for 18 to 20 hrs by broth microdilution method; format: functional
[22] = test system: Staphylococcus epidermidis; assay: Bactericidal activity against methicillin resistant Staphylococcus epidermidis NRS101 assessed as reduction in bacterial cell growth incubated for 18 to 20 hrs followed by re-plating on tryptic soy agar plates at 37 degC for 18 hrs by broth microdilution assay; format: functional
[23] = test system: Klebsiella pneumoniae; assay: Bactericidal activity against Klebsiella pneumoniae BAA-1706 assessed as reduction in bacterial cell growth incubated for 18 to 20 hrs followed by re-plating on tryptic soy agar plates at 37 degC for 18 hrs by broth microdilution assay; format: functional
[24] = test system: Acinetobacter baumannii; assay: Bactericidal activity against Acinetobacter baumannii ATCC 19606 assessed as reduction in bacterial cell growth incubated for 18 to 20 hrs followed by re-plating on tryptic soy agar plates at 37 degC for 18 hrs by broth microdilution assay; format: functional
[25] = test system: Staphylococcus aureus; assay: Antibacterial activity against vancomycin resistant Staphylococcus aureus VRS11a assessed as reduction in bacterial cell growth incubated for 18 to 20 hrs by broth microdilution method; format: functional
[26] = test system: Staphylococcus aureus; assay: Antibacterial activity against Staphylococcus aureus NRS107 assessed as reduction in bacterial cell growth incubated for 18 to 20 hrs by broth microdilution method; format: functional
[27] = test system: Streptococcus pneumoniae; assay: Bactericidal activity against Methicillin resistant Streptococcus pneumoniae ATCC 700677 assessed as reduction in bacterial cell growth incubated for 18 to 20 hrs followed by re-plating on tryptic soy agar plates at 37 degC for 18 hrs by broth microdilution assay; format: functional
[28] = test system: Staphylococcus aureus; assay: Bactericidal activity against methicillin resistant Staphylococcus aureus NRS119 assessed as reduction in bacterial cell growth incubated for 18 to 20 hrs followed by re-plating on tryptic soy agar plates at 37 degC for 18 hrs by broth microdilution assay; format: functional
[29] = test system: Staphylococcus aureus; assay: Bactericidal activity against Staphylococcus aureus ATCC 6538 assessed as reduction in bacterial cell growth incubated for 18 to 20 hrs followed by re-plating on tryptic soy agar plates at 37 degC for 18 hrs by broth microdilution assay; format: functional
[30] = test system: J774; assay: Cytotoxicity against mouse J774 assessed as reduction in cell viability at 16 ug/ml incubated for 24 hrs by MTS assay; format: cell-based; settings: j774, 24 h
[31] = test system: Escherichia coli; assay: Bactericidal activity against Escherichia coli JW55031 harboring deltatolC mutant assessed as reduction in bacterial cell growth incubated for 18 to 20 hrs followed by re-plating on tryptic soy agar plates at 37 degC for 18 hrs by broth microdilution assay; format: functional
[32] = test system: Listeria monocytogenes; assay: Antibacterial activity against Listeria monocytogenes ATCC 19111 assessed as reduction in bacterial cell growth incubated for 18 to 20 hrs by broth microdilution method; format: functional
[33] = test system: Enterococcus faecalis; assay: Antibacterial activity against vancomycin resistant Enterococcus faecalis ATCC 51299 assessed as reduction in bacterial cell growth incubated for 18 to 20 hrs by broth microdilution method; format: functional
[34] = Solubility of compound in PBS after 2 hrs by turbidity based absorbance analysis; format: physicochemical
[35] = test system: Staphylococcus aureus; assay: Bactericidal activity against methicillin-resistant Staphylococcus aureus USA300 assessed as reduction in bacterial cell growth incubated for 18 to 20 hrs followed by re-plating on tryptic soy agar plates at 37 degC for 18 hrs by broth microdilution assay; format: functional
[36] = test system: Streptococcus pneumoniae; assay: Antibacterial activity against Methicillin resistant Streptococcus pneumoniae ATCC 700677 assessed as reduction in bacterial cell growth incubated for 18 to 20 hrs by broth microdilution method; format: functional
[37] = test system: Escherichia coli; assay: BActericidal activity against Escherichia coli BW25113 assessed as reduction in bacterial cell growth incubated for 18 to 20 hrs followed by re-plating on tryptic soy agar plates at 37 degC for 18 hrs by broth microdilution assay; format: functional
[38] = test system: Staphylococcus aureus; assay: Bactericidal activity against vancomycin resistant Staphylococcus aureus VRS10 assessed as reduction in bacterial cell growth incubated for 18 to 20 hrs followed by re-plating on tryptic soy agar plates at 37 degC for 18 hrs by broth microdilution assay; format: functional
[39] = test system: Staphylococcus aureus; assay: Antibacterial activity against vancomycin resistant Staphylococcus aureus VRS12 assessed as reduction in bacterial cell growth incubated for 18 to 20 hrs by broth microdilution method; format: functional

Compound: COc1ccccc1C#Cc1ccc(-c2nc(C)c(/C(C)=N/NC(=N)N)s2)cc1
- MIC [1]: 16 µg/mL (≈ 39.7 µM)

Compound: COC(=O)c1cccc(C#Cc2ccc(-c3nc(C)c(/C(C)=N/NC(=N)N)s3)cc2)c1
- MIC [1]: 32 µg/mL (≈ 74.2 µM)

Compound: C/C(=N\NC(=N)N)c1sc(-c2ccc(C#Cc3ccccc3N)cc2)nc1C
- MIC [1]: > 64 µg/mL

Compound: COc1cccc(C#Cc2ccc(-c3nc(C)c(/C(C)=N/NC(=N)N)s3)cc2)c1
- MIC [1]: 4 µg/mL (≈ 9.91 µM)

Compound: C/C(=N\NC(=N)N)c1sc(-c2ccc(C#Cc3cccs3)cc2)nc1C
- MBC [2]: 2 µg/mL (≈ 5.27 µM)
- MIC [3]: > 64 µg/mL
- MIC [4]: 4 µg/mL (≈ 10.5 µM)
- MBC [5]: > 64 µg/mL
- MBC [6]: 4 µg/mL (≈ 10.5 µM)
- MIC [7]: 8 µg/mL (≈ 21.1 µM)
- MIC [8]: 4 µg/mL (≈ 10.5 µM)
- MIC [9]: 2 µg/mL (≈ 5.27 µM)
- MIC [10]: 64 µg/mL (≈ 169 µM)
- MIC [11]: > 64 µg/mL
- MIC [12]: 4 µg/mL (≈ 10.5 µM)
- MBC [13]: > 64 µg/mL
- MBC [14]: 16 µg/mL (≈ 42.2 µM)
- MIC [15]: > 64 µg/mL
- MBC [16]: 4 µg/mL (≈ 10.5 µM)
- MIC [17]: 1 µg/mL (≈ 2.63 µM)
- MBC [18]: 8 µg/mL (≈ 21.1 µM)
- MIC [19]: 1 µg/mL (≈ 2.63 µM)
- MBC [20]: 32 µg/mL (≈ 84.3 µM)
- MIC [21]: > 64 µg/mL
- MBC [22]: 1 µg/mL (≈ 2.63 µM)
- MBC [23]: > 64 µg/mL
- MBC [24]: > 64 µg/mL
- MIC [25]: 1 µg/mL (≈ 2.63 µM)
- MIC [1]: 2 µg/mL (≈ 5.27 µM)
- MIC [26]: 2 µg/mL (≈ 5.27 µM)
- MBC [27]: 8 µg/mL (≈ 21.1 µM)
- MBC [28]: 4 µg/mL (≈ 10.5 µM)
- MBC [29]: 2 µg/mL (≈ 5.27 µM)
- Activity [30]: Toxic
- MBC [31]: > 64 µg/mL
- MIC [32]: 8 µg/mL (≈ 21.1 µM)
- MIC [33]: 64 µg/mL (≈ 169 µM)
- solubility kinetic at 2 h [34]: 50 µM (≈ 19 µg/mL)
- MBC [35]: 8 µg/mL (≈ 21.1 µM)
- MIC [36]: 4 µg/mL (≈ 10.5 µM)
- MBC [37]: > 64 µg/mL
- MBC [38]: 16 µg/mL (≈ 42.2 µM)
- MIC [39]: 8 µg/mL (≈ 21.1 µM)

Compound: COLISTIN
- MIC [3]: 1 µg/mL
- MIC [10]: < 0.5 µg/mL
- MIC [11]: < 0.5 µg/mL
- MBC [13]: 1 µg/mL
- MIC [15]: < 0.5 µg/mL
- MIC [21]: < 0.5 µg/mL
- MBC [23]: < 0.5 µg/mL
- MBC [24]: < 0.5 µg/mL
- MBC [31]: < 0.5 µg/mL
- MBC [37]: < 0.5 µg/mL

Compound: CCOC(=O)C#Cc1ccc(-c2nc(C)c(/C(C)=N/NC(=N)N)s2)cc1
- MIC [1]: > 64 µg/mL

Compound: C/C(=N\NC(=N)N)c1sc(-c2ccc(C#Cc3cc(O)ccc3C)cc2)nc1C
- MIC [1]: > 64 µg/mL

Compound: C/C(=N\NC(=N)N)c1sc(-c2ccc(C#Cc3ccc(C)cc3)cc2)nc1C
- MIC [1]: 32 µg/mL (≈ 82.6 µM)

Compound: C/C(=N\NC(=N)N)c1sc(-c2ccc(C#Cc3ccc(C(N)=O)cc3)cc2)nc1C
- MIC [1]: > 64 µg/mL

Compound: CC[C@H]1OC(=O)[C@H](C)[C@@H](O[C@H]2C[C@@](C)(OC)[C@@H](O)[C@H](C)O2)[C@H](C)[C@@H](O[C@@H]2O[C@H](C)C[C@H](N(C)C)[C@H]2O)[C@](C)(O)C[C@@H](C)C(=O)[C@H](C)[C@@H](O)[C@]1(C)O [ERYTHROMYCIN]
- MIC [3]: > 64 µg/mL
- MIC [10]: 1 µg/mL (≈ 1.36 µM)
- MIC [11]: 32 µg/mL (≈ 43.6 µM)
- MBC [13]: > 64 µg/mL
- MIC [15]: 8 µg/mL (≈ 10.9 µM)
- MIC [21]: 64 µg/mL (≈ 87.2 µM)
- MBC [23]: > 64 µg/mL
- MBC [24]: 16 µg/mL (≈ 21.8 µM)
- MBC [31]: 2 µg/mL (≈ 2.73 µM)
- MBC [37]: > 64 µg/mL

Compound: C/C(=N\NC(=N)N)c1sc(-c2ccc(C#Cc3ncccn3)cc2)nc1C
- MIC [1]: > 64 µg/mL

Compound: C/C(=N\NC(=N)N)c1sc(-c2ccc(C#Cc3ccncc3)cc2)nc1C
- MIC [1]: > 64 µg/mL

Compound: C/C(=N\NC(=N)N)c1sc(-c2ccc(C#CC3CCCCC3)cc2)nc1C
- solubility kinetic at 2 h [34]: 2.7 µM (≈ 1.02 µg/mL)

Compound: C/C(=N\NC(=N)N)c1sc(-c2ccc(C#Cc3csc(C)c3C)cc2)nc1C
- MIC [1]: 16 µg/mL (≈ 39.3 µM)

Compound: COC(=O)c1ccc(C#Cc2ccc(-c3nc(C)c(/C(C)=N/NC(=N)N)s3)cc2)c(C)c1
- MIC [1]: > 64 µg/mL
